According to patent publication US12391673B2, “LANCL ligands” (NImmune Biopharma, Inc., priority 2020, dated 2025):

Experiments:
[1] = tested on: CD4+ T cells; assay: Immunological screening in vitro in CD4+ T cells (flow cytometry); format: cell-based, C57BL/6 mice; conditions: 100 nanomolar, 24 h, anti-CD3/CD28, PMA and ionomycin last 6 h, relative to vehicle control
Description: Cell culture. Spleens were excised from C57BL/6 mice. Spleens were crushed between the frosted ends of microscope slides and filtered to provide a cellular suspension. Red blood cells were lysed through hypotonic lysis. Remaining cells were washed and filtered. CD4+ T cells were enriched within the suspension using magnetic sorting based negative selection. Cells were collected and plated within 96 well plates coated with anti-CD3/CD28 and cultured in the presence of BT-108-1, BT-108-2, BT-108-6, BT-108-8, BT-108-12, and BT-108-15 at 0 or 100 nanomolar for 24 h. During the last 6 h of culture, cells were stimulated with phorbol 12-myristate-13-acetate (PMA) and ionomycin.
Immunological analysis. Cells were collected from 96 well plates and stained with a cocktail of antibodies for immunophenotyping by flow cytometry. Culture supernatant was collected and assayed for cytokine concentrations by cytometric bead array. Data was captured on a BD FACS Celesta and analyzed using FACSDiva.

[2] = tested on: imiquimod-induced psoriasis; assay: Imiquimod induced model of psoriasis; format: in vivo, C57BL/6 mice; conditions: 10 mg/kg oral gavage daily, one week, vs vehicle
Protocol: IMQ-induced model. C57BL/6 mice were anesthetized, shaved, and briefly exposed to depilatory cream on the surface of the back. Mice were given three days to recover from the procedure prior to entry to the study. After 3 days, mice were challenged with approximately 60 mg of […] imiquimod cream daily by spreading cream over the shaved area. Mice were scored daily for erythema, scaling and skin thickness. Treatment with BT-108-1 (10 mg/kg) or vehicle control occurred by oral gavage. Dosage was calculated based off mean body weights.
Analysis. Spleens were excised and crushed by microscope slides. Red blood cells were hypotonically lysed from the resultant suspension. Samples were filtered, washed and centrifuged prior to staining. Th1 (Tbet+ IFNγ+), Th17 (RORγT+ IL17+), Treg (CD25+ FOXP3+ IL10+) and Tfh (BCL6+ IL21+) were quantified from CD3+ CD4+ T cells by flow cytometry.

[3] = tested on: DSS colitis; assay: DSS model of colitis; format: in vivo, mice; conditions: 10 mg/kg once daily oral gavage, 7 days of DSS, vs vehicle
Protocol: DSS model. Mice were given DSS in drinking water for seven days to induce disruption of the epithelial layer. At project initiation, mice were 8 weeks of age and began dosing 24 hours after being placed on DSS. BT-108-1 was prepared within a 0.5% methylcellulose (12-15 cP) solution. Dosage used was 10 mg/kg delivered once daily. Dosage was calculated based off mean body weights for each gender. Oral dosage was delivered by orogastric gavage of dosage in 0.2 mL volume.
Flow Cytometry. Colons were collected into RPMI/FBS buffer containing collagenase (300 U/mL) and DNase (50 U/mL) for digestion. Tissues were digested for 60 minutes under stirring at 37° C. Resultant cellular suspensions were filtered through 100 μm strainers, centrifuged (300× g, 8 min), and washed in fresh RPMI. Following filtration of the resulting single cell suspensions, immune cells were purified by Percoll gradient of cell-containing 40% Percoll overlayed onto 70% Percoll solution. After centrifugation, interphase was collected and washed to obtain enriched colonic lamina propria cell fractions. Cells were labeled with mixtures of extracellular (CD45, CD3, CD4, CD8, CD19, NK1.1, F4/80, CD11b, Gr1) antibodies in a sequential live staining in 96-well plates. Data was acquired using a FACS Celesta flow cytometer with FACSDiva software.
Histopathology. Colonic tissues were fixed in 10% formalin, paraffin embedded, and H&E stained. Sections were examined using an Olympus microscope. Histological score was assessed through a composite scoring system of leukocytic infiltration, epithelial erosion, and mucosal thickness.

[4] = tested on: collagen induced arthritis; assay: Collagen induced model of arthritis; format: in vivo, C57Bl/6 mice; conditions: 5 mg/kg oral daily for four weeks, vs vehicle
Protocol: Models. Six-week-old C57Bl/6 mice were immunized with 200 μg of chicken collagen emulsified in complete Freund's adjuvant by intradermal injections at the base of the tail. Mice were treated with 5 mg/kg of BT-108-1 or vehicle, daily for four weeks.
Immunological analysis. Spleens were excised from mice. Tissues were crushed and filtered to provide a cellular suspension. Red blood cells were lysed. Cells were labeled with mixtures of extracellular (CD45, CD3, CD4, CD8, B220, CD19, CD138, CD21, CD24, CD1d, CD11b, CD86, CD80) and intracellular (BCL6, IL21, IL10, TNF) antibodies in a sequential live staining in 96-well plates in preparation for flow cytometry. Data was captured on a BD FACS Celesta and analyzed using FACSDiva.

[5] = tested on: NOD model of type 1 diabetes; assay: NOD mouse model of type 1 diabetes; format: in vivo, Non-obese diabetic (NOD) ShiLt mice; conditions: 10 mg/kg oral gavage daily, vs vehicle
Protocol: NOD model. Non-obese diabetic (NOD) ShiLt mice were used in this study. NOD mice have numerous genetic mutations that enable the spontaneous onset of hyperglycemia and pancreatic pathologies associated with T1D. Mice entered into the experiment at 9 weeks of age and were monitored for a 12-week period. Mice were treated daily with vehicle or 10 mg/kg BT-108-1 by oral gavage. Once weekly blood samples were collected from the tail vein to be tested for glucose concentration by glucometer.

[6] = tested on: Western diet model of nonalcoholic steatohepatitis; assay: Western diet / CCl4 model of nonalcoholic steatohepatitis; format: in vivo, C57BL/6 mice; conditions: 5 mg/kg oral gavage daily, after 4 weeks of treatment, vs vehicle
Protocol: WD-induced model. C57BL/6 mice were placed on a Western diet consisting of a high-fat diet with addition of 23.1 g/L d-fructose and 18.9 g/L d-glucose to drinking water and weekly intraperitoneal injections of 0.2 μL/g CCl4 to induce steatohepatitis. Matching groups on control diet were included. Mice were treated daily, in a therapeutic manner after 8 weeks of diet. Treatment with BT-108-1 (5 mg/kg) or vehicle control occurred by oral gavage. Dosage was calculated based off mean body weights.
Analysis. Livers were excised and weighed. Sections of livers were excised and stored in buffered formalin for Sirius red staining or snap frozen for assessment of triglycerides. Severity of fibrosis was assessed by scoring of Sirius red stained liver.

Row | Compound | IFNγ production / IFNγ+ CD4+ T cells [1] | TNFα production / TNF+ CD4+ T cells [1] | Th17 cells (CD4+ IL17+) in the spleen [2] | severity of disease (composite scoring of skin) [2] | Th17 cells (CD4+ IL17+) in the colonic lamina propria [3] | histopathology score (colon) [3] | neutrophils in the colonic lamina propria [3] | proportion of IL-17+ CD4+ T cells in the spleens [4] | proportion of TNF+ immune cells in the spleens [4] | proportion of mice that developed hyperglycemia ([5]; by the end of the study) | fasting blood glucose levels ([5]; throughout the 12-week treatment period) | body weight normalized liver weights [6] | fibrotic scoring (Sirius red stained liver) [6] | liver triglycerides [6]
1 | O=C(Nc1cncc(-c2cnnc3ccccc23)c1)C(O)(c1ccccc1)c1ncc[nH]1 (stereo not drawn) [BT-108-1, N-(5-(cinnolin-4-yl)pyridin-3-yl)-2-hydroxy-2-(1H-imidazol-2-yl)-2-phenylacetamide] | significant reduction | significant reduction | reduced | reduced | decreased | decreased | decreased | significantly reduced | significantly reduced | lower proportion | lower | reduced | reduced | reduced
2 | COc1cccc(C(O)(C(=O)Nc2cncc(-c3cnnc4ccccc34)c2)c2ncc[nH]2)c1 (stereo not drawn) [BT-108-12, N-(5-(cinnolin-4-yl)pyridin-3-yl)-2-hydroxy-2-(1H-imidazol-2-yl)-2-(3-methoxyphenyl)acetamide] | significant reduction | significant reduction | – | – | – | – | – | – | – | – | – | – | – | –
3 | O=C(Nc1cncc(-c2cnnc3ccc(C(F)(F)F)cc23)c1)C(O)(c1ccccc1)c1ncc[nH]1 (stereo not drawn) [BT-108-15, N-(5-(6-trifluoromethylcinnolin-4-yl)pyridin-3-yl)-2-hydroxy-2-(1H-imidazol-2-yl)-2-phenylacetamide] | significant reduction | significant reduction | – | – | – | – | – | – | – | – | – | – | – | –
